# Patent US20060189679A1, “C10 cyclopropyl ester substituted taxane compositions” (priority 2005, published 2006)
# Values joined by “and” are separate entries in the source; they are usually repeats but may differ in a detail not shown here. Identical values can stand only once. Like-named read-outs stand apart in the source and are kept apart here.
# Columns and labels:
# [1] = system: HCT116 human colon carcinoma cells; assay: Cell cycle and apoptotic analyses (propidium iodide flow cytometry); assay type: cell-based; settings: HCT-116 cells, 24 hr exposure
# [2] = system: HCT-116 colon carcinoma cells; assay: In vitro cytotoxic activity (MTT, 72 hr); assay type: cell-based, human; settings: unit not given (dilutions in nM), read-out: In Vitro Antitumor Activity (IC50)
# [3] = system: HT-29 colon carcinoma cells; assay: In vitro cytotoxic activity (MTT, 72 hr); assay type: cell-based, human; settings: unit not given (dilutions in nM), read-out: In Vitro Antitumor Activity (IC50)
# [4] = system: DLD-1 resistant colon carcinoma cells (overexpresses p-glycoprotein); assay: In vitro cytotoxic activity (MTT, 72 hr); assay type: cell-based, human; settings: DLD-1, colon, p-glycoprotein resistance, unit not given (dilutions in nM), read-out: In Vitro Antitumor Activity (IC50)
# [5] = system: PC-3 prostate carcinoma cells; assay: In vitro cytotoxic activity (MTT, 72 hr); assay type: cell-based, human; settings: unit not given (dilutions in nM), read-out: In Vitro Antitumor Activity (IC50)
# [6] = system: LnCaP prostate carcinoma cells; assay: In vitro cytotoxic activity (MTT, 72 hr); assay type: cell-based, human; settings: unit not given (dilutions in nM), read-out: In Vitro Antitumor Activity (IC50)
# [7] = system: PANC-1 pancreatic adenocarcinoma cells; assay: In vitro cytotoxic activity (MTT, 72 hr); assay type: cell-based, human; settings: unit not given (dilutions in nM), read-out: In Vitro Antitumor Activity (IC50)
# [8] = system: 1A9 ovarian carcinoma cells; assay: In vitro cytotoxic activity (MTT, 72 hr); assay type: cell-based, human; settings: unit not given (dilutions in nM), read-out: In Vitro Antitumor Activity (IC50)
# [9] = system: 1A9-PTX10 paclitaxel resistant ovarian carcinoma cells (tubulin mutation); assay: In vitro cytotoxic activity (MTT, 72 hr); assay type: cell-based, human; settings: for IC50: 1A9-PTX10, ovarian, tubulin mutation, MTT 72 hr, unit not given (dilutions in nM), read-out: In Vitro Antitumor Activity (IC50)
# [10] = system: 1A9-PTX22 paclitaxel resistant ovarian carcinoma cells (tubulin mutation); assay: In vitro cytotoxic activity (MTT, 72 hr); assay type: cell-based, human; settings: for IC50: 1A9-PTX22, ovarian, tubulin mutation, MTT 72 hr, unit not given (dilutions in nM), read-out: In Vitro Antitumor Activity (IC50)
# [11] = system: DLD-1 multi-drug resistant human colon carcinoma xenografts; settings: for MDS to 2.0 g ± SEM (n): DLD1-e07 study; for antitumor activity: DLD e07, optimum dose, route (IV) and schedule; for # Death NTR (Non-Treatment Related) / # Death TR (Treatment Related): mouse, in vivo
# [12] = system: SW480 human colon carcinoma xenografts; settings: mouse, in vivo; for controlling tumor growth compared to the lower doses of compound 3102: iv
# [13] = system: 786-0 human renal carcinoma xenografts; settings: for Median survival / Median survival Ratio: iv
# [14] = Toxicity profile on oral and IV dosing in rats; settings: dosed both orally and IV
# [15] = Homo sapiens, Ovarian carcinoma cell
# [16] = IV QWK × 3 25 mg/kg vs 5% EC in Saline PO Q4D × 4
# [17] = IV QWK × 3 30 mg/kg vs 5% EC in Saline PO Q4D × 4
compound,measurement,setting,value
CC(=O)O[C@@]12CO[C@@H]1C[C@H](O)[C@@]1(C)C(=O)[C@H](OC(=O)C3CC3)C3=C(C)[C@@H](OC(=O)[C@H](O)[C@@H](NC(=O)OCC(C)C)c4ccco4)C[C@@](O)([C@@H](OC(=O)c4ccccc4)C12)C3(C)C (stereo partly drawn) [Compound 3102],Apoptotic (percentage of cells in sub G1 peak),[1]; 10 nM,24.4%
same,G1 (percentage of cells),[1]; 10 nM,20.1%
same,G2/M (percentage of cells),[1]; 10 nM,27.3%
same,S (percentage of cells),[1]; 10 nM,23.9%
same,Apoptotic (percentage of cells in sub G1 peak),[1]; 100 nM,11.7%
same,G1 (percentage of cells),[1]; 100 nM,7.0%
same,G2/M (percentage of cells),[1]; 100 nM,74.0%
same,S (percentage of cells),[1]; 100 nM,7.1%
same,IC50,[2]; Homo sapiens,0.9 nM
same,IC50,[3]; Homo sapiens,1.2 nM
same,IC50,[4]; Homo sapiens,1.9 nM
same,IC50,[5]; Homo sapiens,1.8 nM
same,IC50,[6]; Homo sapiens,2.6 nM
same,IC50,[7]; Homo sapiens,1.8 nM
same,IC50,[8]; [15],1.6 nM
same,potency compared to that of paclitaxel,[9]; 1A9-PTX10 (sentence covers 1A9-PTX10 and 1A9-PTX22),4 to 8 fold
same,IC50,"[9]; Homo sapiens, 1A9/ptx-10",5.2 nM
same,potency compared to that of paclitaxel,[10]; 1A9-PTX22 (sentence covers 1A9-PTX10 and 1A9-PTX22),4 to 8 fold
same,IC50,"[10]; Homo sapiens, 1A9/ptx-22",8.5 nM
same,MDS to 2.0 g ± SEM (n),[11]; 30 mg/kg IV Q4D × 4,45.3 ± 4.6
same,MDS to 2.0 g ± SEM (n),[11]; 50 mg/kg PO Q4D × 4,47.1 ± 3.9
same,MDS to 2.0 g ± SEM (n),[11]; 70 mg/kg PO Q4D × 4,46.1 ± 3.5
same,MDS to 2.0 g ± SEM (n),[11]; 80 mg/kg PO Q4D × 4,53.8±
same,treatment related death,[12],One
same,Logrank Test Chi square,[13]; IV Q4D × 4 30 mg/kg vs 5% EC in Saline PO Q4D × 4,5.459
same,Logrank Test Chi square,[13]; PO Q4D × 4 50 mg/kg vs 5% EC in Saline PO Q4D × 4,1.972
same,Logrank Test Chi square,[13]; PO Q4D × 4 70 mg/kg vs 5% EC in Saline PO Q4D × 4,0.2502
same,Logrank Test Chi square,[13]; PO Q4D × 4 80 mg/kg vs 5% EC in Saline PO Q4D × 4,5.234
same,toxicity profile,[14],favorable toxicity profile
"CC(=O)O[C@H]1C(=O)[C@@]2(C)[C@H]([C@H](OC(=O)c3ccccc3)[C@]3(O)C[C@H](OC(=O)[C@H](O)[C@@H](NC(=O)c4ccccc4)c4ccccc4)C(C)=C1C3(C)C)[C@]1(OC(C)=O)CO[C@@H]1C[C@@H]2O [Paclitaxel, paclitaxel]",Apoptotic (percentage of cells in sub G1 peak),[1]; 10 nM,24.0%
same,G1 (percentage of cells),[1]; 10 nM,31.1%
same,G2/M (percentage of cells),[1]; 10 nM,17.8%
same,S (percentage of cells),[1]; 10 nM,25.0%
same,Apoptotic (percentage of cells in sub G1 peak),[1]; 100 nM,15.3%
same,G1 (percentage of cells),[1]; 100 nM,7.0%
same,G2/M (percentage of cells),[1]; 100 nM,67.2%
same,S (percentage of cells),[1]; 100 nM,9.4%
same,IC50,[3]; Homo sapiens,2.6 nM
same,IC50,[4]; Homo sapiens,> 10 nM
same,IC50,[5]; Homo sapiens,4.1 nM
same,IC50,[6]; Homo sapiens,3.1 nM
same,IC50,[7]; Homo sapiens,4.2 nM
same,IC50,[8]; [15],2.5 nM
same,IC50,"[9]; Homo sapiens, 1A9/ptx-10",> 40 nM
same,IC50,"[10]; Homo sapiens, 1A9/ptx-22",> 30 nM
same,MDS to 2.0 g ± SEM (n),[11]; 30 mg/kg IV QOD × 5,40.2 ± 4.7
same,antitumor activity,[11],failed to demonstrate significant antitumor activity against DLD-1 tumors
same,# Death NTR (Non-Treatment Related),[11],0
same,# Death TR (Treatment Related),[11]; nude,0
same,# Death NTR (Non-Treatment Related),[12],0
same,# Death TR (Treatment Related),[12],0
same,MDS to 2.0 g ± SEM (n),[12],26.2 ± 3.0
same,controlling tumor growth compared to the lower doses of compound 3102,[12],as effective or slightly less effective in controlling tumor growth
same,"slowing of tumor growth vs control (statistical analysis, words)","[13]; 786-0 e89, optimum dose, route (IV) and schedule",did not appear to significantly slow the growth of tumors compared to control
same,Logrank Test Chi square,[13]; IV QOD × 5 30 mg/kg vs 5% EC in Saline PO Q4D × 4,3.414
same,# Death NTR (Non-Treatment Related),"[13]; mouse, in vivo",0
same,# Death TR (Treatment Related),"[13]; mouse, in vivo",0
same,Day of Max. % BW Loss,"[13]; mouse, in vivo",Day 13
same,MDS to 2.0 g ± SEM (n),"[13]; mouse, in vivo",40.0 ± 6.6
same,Max. % BW Loss,"[13]; mouse, in vivo",−7.6%;
same,Are the survival curves sig different?,"[13]; mouse, in vivo, 30 mg/kg",No
same,Median survival,"[13]; mouse, in vivo, 30 mg/kg",51.15
docetaxel,Apoptotic (percentage of cells in sub G1 peak),[1]; 10 nM,44.1%
same,G1 (percentage of cells),[1]; 10 nM,10.4%
same,G2/M (percentage of cells),[1]; 10 nM,17.1%
same,S (percentage of cells),[1]; 10 nM,25.4%
same,Apoptotic (percentage of cells in sub G1 peak),[1]; 100 nM,14.4%
same,G1 (percentage of cells),[1]; 100 nM,4.0%
same,G2/M (percentage of cells),[1]; 100 nM,68.0%
same,S (percentage of cells),[1]; 100 nM,11.6%
same,IC50,[2],0.9 nM
same,IC50,[3],1.2 nM
same,IC50,[4],9.2 nM
same,IC50,[5],2.8 nM
same,IC50,[6],1.9 nM
same,IC50,[7],2 nM
same,IC50,[8],1.8 nM
same,IC50,[9],7 nM
same,IC50,[10],8.5 nM
same,MDS to 2.0 g ± SEM (n),[11]; 25 mg/kg IV Q7D × 3,35.0 ± 2.3
same,MDS to 2.0 g ± SEM (n),[11]; 30 mg/kg IV Q7D × 3,37.6 ± 6.5
same,antitumor activity,[11],failed to demonstrate significant antitumor activity against DLD-1 tumors
same,# Death NTR (Non-Treatment Related),[11],0
same,# Death TR (Treatment Related),[11],0
same,MDS to 2.0 g ± SEM (n),[12],29.0 ± 7.8 and 32.4 ± 4.1
same,non-treatment related death,[12],one
same,non-treatment related deaths,[12],two
same,treatment related death,[12],one
same,controlling tumor growth compared to the lower doses of compound 3102,[12],as effective or slightly less effective in controlling tumor growth
same,Hazard Ratio,[13]; [16],2.967
same,Logrank Test Chi square,[13]; [16],4.859
same,Hazard Ratio,[13]; [17],3.39
same,Logrank Test Chi square,[13]; [17],5.271
same,# Death TR (Treatment Related),"[13]; mouse, in vivo",0
same,MDS to 2.0 g ± SEM (n),"[13]; mouse, in vivo",52.1 ± 4.7 and 49.3 ± 4.3
same,"slowing of tumor growth vs vehicle control (statistical analysis, words)","[13]; mouse, in vivo",able to slow 786-0 tumor growth compared to the vehicle control
same,Are the survival curves sig different?,"[13]; mouse, in vivo, 25 mg/kg",Yes
same,Are the survival curves sig different?,"[13]; mouse, in vivo, 30 mg/kg",Yes
same,Median survival,"[13]; mouse, in vivo, 25 mg/kg",52.7
same,Median survival Ratio,"[13]; mouse, in vivo, 25 mg/kg",0.704
same,Median survival,"[13]; mouse, in vivo, 30 mg/kg",52
same,Median survival Ratio,"[13]; mouse, in vivo, 30 mg/kg",0.7135
